We go through five compounds from patent US12187773B2, “Modified GIP peptide analogues” (Antag Therapeutics ApS, priority 2018, dated 2025).

*1 amine or outer side, *2 acyl side, *3 side chain or, on linkers, in order; H or OH if unused. Where a SMILES comes first, the peptide text is derived from it. Side-chain parts run from the residue outwards. [ ]: non-standard residue; d: D form. The star is where a group is joined. C18 diacid = O=C(O)CCCCCCCCCCCCCCCCC(=O)*; C16 diacid = O=C(O)CCCCCCCCCCCCCCC(=O)*; γGlu = O=C(O)[C@H](CCC(=O)[*:2])N[*:1]; pGlu = O=C1CC[C@@H](C(=O)O)N1; AEEA = NCCOCCOCC(=O)O

Common to all, as to assay type: cell-based
In assay [1] the target is T1, human GIP receptor (Homo sapiens, UniProt P48546).
T1 sequence (P48546 22-466): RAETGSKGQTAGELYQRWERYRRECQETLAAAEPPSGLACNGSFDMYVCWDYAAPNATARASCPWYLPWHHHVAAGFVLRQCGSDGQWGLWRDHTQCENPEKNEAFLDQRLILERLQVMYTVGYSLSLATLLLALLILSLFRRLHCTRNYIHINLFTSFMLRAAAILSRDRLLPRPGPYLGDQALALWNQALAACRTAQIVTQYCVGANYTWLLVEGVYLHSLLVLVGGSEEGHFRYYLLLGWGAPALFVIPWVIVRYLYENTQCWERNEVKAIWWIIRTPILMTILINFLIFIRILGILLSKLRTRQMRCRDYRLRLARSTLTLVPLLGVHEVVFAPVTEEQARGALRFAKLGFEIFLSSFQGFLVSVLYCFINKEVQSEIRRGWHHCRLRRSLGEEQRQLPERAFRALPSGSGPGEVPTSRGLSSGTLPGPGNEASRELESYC
The experiment in a line: cAMP agonism (CisBio cAMP Dynamic 2 HTRF assay). The settings on record: HEK293, read-out: cAMP agonism, % Efficacy, Table 1C, HEK-293 cells. The method, then: To test for agonistic properties at the GIP receptor, compounds were diluted and added to cells as described above and incubated for 30 min at 37° C. The resulting increase in intracellular cAMP was determined using the CisBio cAMP Dynamic 2 HTRF Assay Kit as described above.
For orientation: TR-FRET usually uses a lanthanide donor and a delayed reading to cut background.

Assay [2] addresses T1, human GIP receptor. The experiment in a line: cAMP antagonism (CisBio cAMP Dynamic 2 HTRF assay). Further details: pCMV-Script vector. The method, boiled down:
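Four-parameter fits of cAMP dose-response gave pIC50. cAMP fall was quantified by HTRF competition, ratio 665/620 nm after 60 min at room temperature, against a cAMP standard curve.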

The target in assay [3] is T2, secretin receptor (SCTR) (Homo sapiens, UniProt P47872).
T2 construct: expressed in transfected cells; host or cells: COS-7 (transient)
T2 sequence (P47872 23-440, species assumed): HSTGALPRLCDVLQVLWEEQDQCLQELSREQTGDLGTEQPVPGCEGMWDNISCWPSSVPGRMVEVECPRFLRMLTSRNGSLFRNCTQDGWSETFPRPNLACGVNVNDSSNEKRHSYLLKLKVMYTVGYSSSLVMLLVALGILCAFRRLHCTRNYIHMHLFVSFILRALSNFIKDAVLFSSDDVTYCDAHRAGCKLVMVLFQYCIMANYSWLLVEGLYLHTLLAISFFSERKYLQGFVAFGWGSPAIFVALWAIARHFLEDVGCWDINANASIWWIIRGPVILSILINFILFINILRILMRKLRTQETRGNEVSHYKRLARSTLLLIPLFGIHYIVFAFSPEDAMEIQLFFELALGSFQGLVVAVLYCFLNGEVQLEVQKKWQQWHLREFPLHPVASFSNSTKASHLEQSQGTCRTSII
As to the kind of experiment: cAMP assay - selectivity, antagonism at secretin receptor. To be noted: Table 3B; COS-7 cells; agonist secretin. The method, then: Transient transfected COS-7 cells expressing the either of the GLP1 receptor (GLP1R), GLP2 receptor (GLP2R), glucagon receptor (GcgR) or secretin receptor (SCTR) were seeded in white 96-well plates with a density of 3.5*10^4/well. The day after, the cells were washed twice with Hepes buffered saline (HBS) buffer and incubated with HBS and 1 mM 3-isobutyl-1-methylxanthine (IBMX) for 30 min at 37° C. To test for agonistic properties, ligands were added and incubated for 30 min at 37° C. In order to test for antagonistic properties, the cells were preincubated with the antagonists for 10 min prior to the addition the natural agonist for the expressed receptor (GLP1 for GLP1R expressing cells, GLP2 for GLP2R expressing cells, glucagon for the GcgR and secretin for the SCTR) and subsequent incubated for 20 additional min. […] The HitHunter™ cAMP XS assay (DiscoveRx) was carried out according to the manufacturer's instructions.
(Changes in cAMP serve as a functional read-out for many G protein-coupled receptors.)

Where [4] appears, read: GIPR, Antagonism, nM, Table 3C, CisBio assay.
Where [5] appears, read: Table 1C, CisBio, HEK-293 cells.
Setting [6] is: cAMP antagonism, nM (IC50), Table 1C, CisBio, HEK-293 cells, agonist GIP1-42 at EC50.

Broadly, the IC50 is the midpoint of a concentration-inhibition curve. High values mean lower potency, low ones higher potency. Consider `CC[C@H](C)[C@H](NC(=O)[C@H](CO)NC(=O)[C@H](Cc1ccc(O)cc1)NC(=O)[C@H](CC(=O)O)NC(=O)[C@H](CO)NC(=O)[C@@H](NC(=O)[C@H](Cc1ccccc1)NC(=O)[C@@H](NC(=O)CNC(=O)[C@@H]1CCC(=O)N1)[C@@H](C)O)[C@@H](C)CC)C(=O)N[C@@H](C)C(=O)N[C@@H](CCSC)C(=O)N[C@@H](CC(=O)O)C(=O)N[C@@H](CCCNC(=N)N)C(=O)N[C@H](C(=O)N[C@@H](CCCCNC(=O)COCCOCCNC(=O)COCCOCCNC(=O)COCCOCCNC(=O)CC[C@H](NC(=O)CCCCCCCCCCCCCCCCC(=O)O)C(=O)O)C(=O)N[C@@H](CCC(N)=O)C(=O)N[C@@H](CCC(N)=O)C(=O)N[C@@H](CC(=O)O)C(=O)N[C@@H](Cc1ccccc1)C(=O)N[C@H](C(=O)N[C@@H](CC(N)=O)C(=O)N[C@@H](Cc1c[nH]c2ccccc12)C(=O)N[C@@H](CC(C)C)C(=O)N[C@@H](CC(C)C)C(=O)N[C@@H](C)C(=O)N[C@@H](CCC(N)=O)C(=O)N[C@@H](CCCNC(=N)N)C(N)=O)C(C)C)[C@@H](C)CC` [AT382] ([pGlu]GTFISDYSIAMDRIK([AEEA-AEEA-AEEA-γGlu-C18 diacid])QQDFVNWLLAQR-NH2), for which the Emax in assay [1] is 0%. In addition, the IC50 in assay [2] (setting [4]) and in assay [2] (setting [6]) was 25.1 nM in each case. Besides, the “cAMP antagonism, % inhib” value in assay [2] (setting [5]) came out at 83%. For the same compound, the “GIPR, Antagonism, % inhib” value in assay [2] (Table 3C, CisBio assay) came out at 83%. In addition, in assay [3], the “Secretin R, Antagonism” value is given as “No antagonism”.

Consider `CC[C@H](C)[C@H](NC(=O)[C@H](CO)NC(=O)[C@H](Cc1ccc(O)cc1)NC(=O)[C@H](CC(=O)O)NC(=O)[C@H](CO)NC(=O)[C@@H](NC(=O)[C@H](Cc1ccccc1)NC(=O)[C@@H](NC(=O)CNC(=O)[C@@H](N)CO)[C@@H](C)O)[C@@H](C)CC)C(=O)N[C@@H](C)C(=O)N[C@@H](CCSC)C(=O)N[C@@H](CC(=O)O)C(=O)N[C@@H](CCCNC(=N)N)C(=O)N[C@H](C(=O)N[C@@H](CCCCNC(=O)COCCOCCNC(=O)COCCOCCNC(=O)COCCOCCNC(=O)CC[C@H](NC(=O)CCCCCCCCCCCCCCC(=O)O)C(=O)O)C(=O)N[C@@H](CCC(N)=O)C(=O)N[C@@H](CCC(N)=O)C(=O)N[C@@H](CC(=O)O)C(=O)N[C@@H](Cc1ccccc1)C(=O)N[C@H](C(=O)N[C@@H](CC(N)=O)C(=O)N[C@@H](Cc1c[nH]c2ccccc12)C(=O)N[C@@H](CC(C)C)C(=O)N[C@@H](CC(C)C)C(=O)N[C@@H](C)C(=O)N[C@@H](CCC(N)=O)C(=O)N[C@@H](CCCNC(=N)N)C(N)=O)C(C)C)[C@@H](C)CC` [AT383] (H-SGTFISDYSIAMDRIK([AEEA-AEEA-AEEA-γGlu-C16 diacid])QQDFVNWLLAQR-NH2; N-terminus assumed), for which the Emax in assay [1] stood at 0%. The IC50 in assay [2] (setting [4]) and in assay [2] (setting [6]) was 12.6 nM throughout. In addition, the “cAMP antagonism, % inhib” value in assay [2] (setting [5]) was found to be 89%. The “GIPR, Antagonism, % inhib” value in assay [2] (Table 3C, CisBio assay) is on record as 89%. The “Secretin R, Antagonism” value in assay [3] is “No antagonism”.

For `CC[C@H](C)[C@H](NC(=O)[C@H](CO)NC(=O)[C@H](Cc1ccc(O)cc1)NC(=O)[C@H](CC(=O)O)NC(=O)[C@H](CO)NC(=O)[C@@H](NC(=O)[C@H](Cc1ccccc1)NC(=O)[C@@H](NC(=O)CNC(=O)[C@@H](N)CO)[C@@H](C)O)[C@@H](C)CC)C(=O)N[C@@H](C)C(=O)N[C@@H](CCSC)C(=O)N[C@@H](CC(=O)O)C(=O)N[C@@H](CCCNC(=N)N)C(=O)N[C@H](C(=O)N[C@@H](CCCCNC(=O)COCCOCCNC(=O)COCCOCCNC(=O)CC[C@H](NC(=O)CCCCCCCCCCCCCCCCC(=O)O)C(=O)O)C(=O)N[C@@H](CCC(N)=O)C(=O)N[C@@H](CCC(N)=O)C(=O)N[C@@H](CC(=O)O)C(=O)N[C@@H](Cc1ccccc1)C(=O)N[C@H](C(=O)N[C@@H](CC(N)=O)C(=O)N[C@@H](Cc1c[nH]c2ccccc12)C(=O)N[C@@H](CC(C)C)C(=O)N[C@@H](CC(C)C)C(=O)N[C@@H](C)C(=O)N[C@@H](CCC(N)=O)C(=O)N[C@@H](CCCNC(=N)N)C(N)=O)C(C)C)[C@@H](C)CC` [AT384] (H-SGTFISDYSIAMDRIK([AEEA-AEEA-γGlu-C18 diacid])QQDFVNWLLAQR-NH2; N-terminus assumed), the Emax in assay [1] turned out to be 0%. Besides, the IC50 in assay [2] (setting [4]) and in assay [2] (setting [6]) was 54.1 nM in each case. In addition, the “cAMP antagonism, % inhib” value in assay [2] (setting [5]) came to 97%. The “GIPR, Antagonism, % inhib” value in assay [2] (Table 3C, CisBio assay) came out at 97%. In assay [3], the “Secretin R, Antagonism” value is given as “No antagonism”.

Consider `CC[C@H](C)[C@H](NC(=O)[C@H](CO)NC(=O)[C@H](Cc1ccc(O)cc1)NC(=O)[C@H](CC(=O)O)NC(=O)[C@H](CO)NC(=O)[C@@H](NC(=O)[C@H](Cc1ccccc1)NC(=O)[C@@H](NC(=O)CNC(=O)[C@@H](N)CO)[C@@H](C)O)[C@@H](C)CC)C(=O)N[C@@H](C)C(=O)N[C@@H](CCSC)C(=O)N[C@@H](CC(=O)O)C(=O)N[C@@H](CCCNC(=N)N)C(=O)N[C@H](C(=O)N[C@@H](CCCCNC(=O)COCCOCCNC(=O)COCCOCCNC(=O)COCCOCCNC(=O)CC[C@H](NC(=O)CCCCCCCCCCCCCCCCC(=O)O)C(=O)O)C(=O)N[C@@H](CCC(N)=O)C(=O)N[C@@H](CCC(N)=O)C(=O)N[C@@H](CC(=O)O)C(=O)N[C@@H](Cc1ccccc1)C(=O)N[C@H](C(=O)N[C@@H](CC(N)=O)C(=O)N[C@@H](Cc1c[nH]c2ccccc12)C(=O)N[C@@H](CC(C)C)C(=O)N[C@@H](CC(C)C)C(=O)N[C@@H](C)C(=O)N[C@@H](CCC(N)=O)C(=O)N[C@@H](CCCNC(=N)N)C(N)=O)C(C)C)[C@@H](C)CC` [AT385] (H-SGTFISDYSIAMDRIK([AEEA-AEEA-AEEA-γGlu-C18 diacid])QQDFVNWLLAQR-NH2; N-terminus assumed), for which the Emax in assay [1] amounted to 3%. The IC50 in assay [2] (setting [4]) and in assay [2] (setting [6]) was 43 nM throughout. Moreover, the “cAMP antagonism, % inhib” value in assay [2] (setting [5]) came to 70%. The “GIPR, Antagonism, % inhib” value in assay [2] (Table 3C, CisBio assay) worked out at 70%. Besides, the “Secretin R, Antagonism” value in assay [3] is “No antagonism”.

For `CC[C@H](C)[C@H](NC(=O)[C@H](CO)NC(=O)[C@H](Cc1ccc(O)cc1)NC(=O)[C@H](CC(=O)O)NC(=O)[C@H](CO)NC(=O)[C@@H](NC(=O)[C@H](Cc1ccccc1)NC(=O)[C@@H](NC(=O)CNC(=O)[C@@H](N)CO)[C@@H](C)O)[C@@H](C)CC)C(=O)N[C@@H](C)C(=O)N[C@@H](CCSC)C(=O)N[C@@H](CC(=O)O)C(=O)N[C@@H](CCCNC(=N)N)C(=O)N[C@H](C(=O)N[C@@H](CCCCNC(=O)CCCCCCCCCCCCCCCCC(=O)O)C(=O)N[C@@H](CCC(N)=O)C(=O)N[C@@H](CCC(N)=O)C(=O)N[C@@H](CC(=O)O)C(=O)N[C@@H](Cc1ccccc1)C(=O)N[C@H](C(=O)N[C@@H](CC(N)=O)C(=O)N[C@@H](Cc1c[nH]c2ccccc12)C(=O)N[C@@H](CC(C)C)C(=O)N[C@@H](CC(C)C)C(=O)N[C@@H](C)C(=O)N[C@@H](CCC(N)=O)C(=O)N[C@@H](CCCNC(=N)N)C(N)=O)C(C)C)[C@@H](C)CC` [AT393] (H-SGTFISDYSIAMDRIK(C18 diacid)QQDFVNWLLAQR-NH2; N-terminus assumed), the Emax in assay [1] was found to be 6%. In addition, the IC50 in assay [2] (setting [4]) and in assay [2] (setting [6]) was 33.5 nM throughout. In addition, the “cAMP antagonism, % inhib” value in assay [2] (setting [5]) stood at 78%. For the same compound, the “GIPR, Antagonism, % inhib” value in assay [2] (Table 3C, CisBio assay) is on record as 78%. For the same compound, the “Secretin R, Antagonism” value in assay [3] is given as “No antagonism”.
